Assay results published in ChEMBL document CHEMBL1201862, “PubChem BioAssay data set” (2004).
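Protocol summary: plate cells (96-well), add compound at 5 concentrations, incubate 48 h, interpolate endpoints linearly. Here, GI50 denotes the concentration required for 50% inhibition of growth.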 Calls of active or inactive are those of the source. No stated cut-off is given here; in the data, active = GI50 up to about 1.1 µM and inactive = higher.

Tests used:
Assay in all cases: NCI tumour cell line growth inhibition, 48 h
[1] = tested on: A498
[2] = tested on: BT-549
[3] = tested on: CAKI-1
[4] = tested on: CCRF-CEM
[5] = tested on: COLO 205
[6] = tested on: DU-145
[7] = tested on: HCC 2998
[8] = tested on: HCT-116
[9] = tested on: HCT-15
[10] = tested on: HL-60
[11] = tested on: HOP-62
[12] = tested on: HOP-92
[13] = tested on: HT-29
[14] = tested on: Hs-578T
[15] = tested on: IGROV-1
[16] = tested on: K562
[17] = tested on: KM12
[18] = tested on: M14
[19] = tested on: MCF7
[20] = tested on: MDA-MB-231
[21] = tested on: MDA-MB-435
[22] = tested on: MDA-N
[23] = tested on: MOLT-4
[24] = tested on: Malme-3M
[25] = tested on: NCI-H226
[26] = tested on: NCI-H23
[27] = tested on: NCI-H460
[28] = tested on: NCI-H522
[29] = tested on: NCI/ADR-RES
[30] = tested on: OVCAR-3
[31] = tested on: OVCAR-5
[32] = tested on: OVCAR-8
[33] = tested on: PC-3
[34] = tested on: RPMI-8226
[35] = tested on: RXF 393
[36] = tested on: SF-295
[37] = tested on: SK-MEL-28
[38] = tested on: SK-MEL-2
[39] = tested on: SK-MEL-5
[40] = tested on: SK-OV-3
[41] = tested on: SNB-19
[42] = tested on: SNB-75
[43] = tested on: SR
[44] = tested on: T47D
[45] = tested on: U-251
[46] = tested on: UACC-62
[47] = tested on: UO-31
[48] = tested on: 786-0
[49] = tested on: A549
[50] = tested on: ACHN
[51] = tested on: EKVX
[52] = tested on: LOX IMVI
[53] = tested on: OVCAR-4
[54] = tested on: SF-268
[55] = tested on: SF-539
[56] = tested on: SN12C
[57] = tested on: SW-620
[58] = tested on: TK-10
[59] = tested on: UACC-257

In the case of `O=C(/N=N/c1ccc(Br)cc1)NNc1ccc(Br)cc1`, the GI50 [1] is reported as 44 µM (inactive), the GI50 [2] is reported as > 10 µM (inactive) and the GI50 [3] is reported as 23.7 µM (inactive). For the same molecule, the GI50 [4] was 0.132 µM (active), the GI50 [5] was 23 µM (inactive) and the GI50 [6] was 40.8 µM (inactive). The GI50 [7] was 21.5 µM (inactive), the GI50 [8] was 17.5 µM (inactive) and the GI50 [9] was 19.4 µM. The GI50 [10] was 14 µM (inactive), the GI50 [11] was 16.4 µM (inactive) and the GI50 [12] was 16.1 µM (inactive). The GI50 [13] was 17.4 µM (inactive), the GI50 [14] was > 10 µM (inactive) and the GI50 [15] was 22.1 µM (inactive). For the same molecule, the GI50 [16] was 10.5 µM (inactive), the GI50 [17] was 17.7 µM (inactive) and the GI50 [18] was 17.1 µM (inactive). For the same molecule, the GI50 [19] was 18.2 µM (inactive), the GI50 [20] was 21.2 µM (inactive) and the GI50 [21] was 19.8 µM (inactive). For the same molecule, the GI50 [22] was 24.2 µM (inactive), the GI50 [23] was 11.8 µM (inactive) and the GI50 [24] was 26 µM (inactive). For the same molecule, the GI50 [25] was 20.5 µM (inactive), the GI50 [26] was 22.5 µM (inactive) and the GI50 [27] was 21.9 µM (inactive). For the same molecule, the GI50 [28] was 16.2 µM (inactive), the GI50 [29] was 20 µM (inactive) and the GI50 [30] was 16.8 µM (inactive). For the same molecule, the GI50 [31] was 23.3 µM (inactive), the GI50 [32] was 29.7 µM (inactive) and the GI50 [33] was 15.5 µM (inactive). For the same molecule, the GI50 [34] was 23.8 µM (inactive), the GI50 [35] was 14.1 µM (inactive) and the GI50 [36] was 28.1 µM (inactive). For the same molecule, the GI50 [37] was 26.3 µM (inactive), the GI50 [38] was 19.1 µM (inactive) and the GI50 [39] was 13.9 µM (inactive). For the same molecule, the GI50 [40] was 29 µM (inactive), the GI50 [41] was 39.8 µM (inactive) and the GI50 [42] was 29.4 µM (inactive). For the same molecule, the GI50 [43] was 28.6 µM (inactive), the GI50 [44] was 29.8 µM (inactive) and the GI50 [45] was 17.5 µM (inactive). The GI50 [46] was 14.1 µM (inactive) and the GI50 [47] was 22.9 µM (inactive).
In the case of `O=C(NO)c1ccc(OCc2cccc(Cl)c2)cc1`, the GI50 [48] is reported as 6.11 µM (inactive), the GI50 [1] is reported as 4.81 µM (inactive) and the GI50 [49] is reported as 8.18 µM (inactive). For the same molecule, the GI50 [50] was 4.57 µM (inactive), the GI50 [2] was 13.7 µM (inactive) and the GI50 [3] was 6.65 µM (inactive). The GI50 [4] was 2.66 µM (inactive), the GI50 [5] was 7.35 µM (inactive) and the GI50 [6] was 7.59 µM (inactive). The GI50 [51] was 10.8 µM (inactive), the GI50 [7] was 5.87 µM (inactive) and the GI50 [8] was 2.22 µM (inactive). For the same molecule, the GI50 [9] was 4.57 µM, the GI50 [10] was 2.47 µM (inactive) and the GI50 [11] was 9.1 µM (inactive). For the same molecule, the GI50 [12] was 11.9 µM (inactive), the GI50 [13] was 8.45 µM (inactive) and the GI50 [14] was 16.2 µM (inactive). For the same molecule, the GI50 [15] was 6.67 µM (inactive), the GI50 [16] was 7.96 µM (inactive) and the GI50 [17] was 11.9 µM (inactive). The GI50 [52] was 5.07 µM (inactive), the GI50 [18] was 12.9 µM (inactive) and the GI50 [19] was 12.7 µM (inactive). The GI50 [20] was 12.1 µM (inactive), the GI50 [21] was 6.67 µM (inactive) and the GI50 [22] was 10.1 µM (inactive). The GI50 [23] was 2.62 µM (inactive), the GI50 [25] was 11.9 µM (inactive) and the GI50 [26] was 5.3 µM (inactive). For the same molecule, the GI50 [27] was 4.58 µM (inactive), the GI50 [28] was 3.27 µM (inactive) and the GI50 [29] was 2.13 µM (inactive). The GI50 [30] was 4.55 µM (inactive), the GI50 [53] was 8.95 µM (inactive) and the GI50 [31] was 6.15 µM (inactive). For the same molecule, the GI50 [32] was 3.01 µM (inactive), the GI50 [33] was 6.64 µM (inactive) and the GI50 [34] was 3.27 µM (inactive). The GI50 [35] was 10.2 µM (inactive), the GI50 [54] was 10.7 µM (inactive) and the GI50 [36] was 9.33 µM (inactive). For the same molecule, the GI50 [55] was 8.11 µM (inactive), the GI50 [37] was 12.3 µM (inactive) and the GI50 [38] was 12.8 µM (inactive). The GI50 [39] was 12.4 µM (inactive), the GI50 [40] was 8.45 µM (inactive) and the GI50 [56] was 8.89 µM (inactive). For the same molecule, the GI50 [41] was 24.5 µM (inactive), the GI50 [42] was 9.2 µM (inactive) and the GI50 [43] was 2.16 µM (inactive). For the same molecule, the GI50 [57] was 5.08 µM (inactive), the GI50 [44] was 6.97 µM (inactive) and the GI50 [58] was 11.6 µM (inactive). The GI50 [45] was 11.6 µM (inactive), the GI50 [59] was 13.6 µM (inactive) and the GI50 [46] was 5.4 µM (inactive). For the same molecule, the GI50 [47] was 7.43 µM (inactive).
`COC(=O)c1c(OC(C)=O)ccc2c1c1c(OC(C)=O)c3ccccc3c(OC(C)=O)c1n2Cc1cc(OC)cc(OC)c1` was tested, and the GI50 [48] was 36.5 µM (inactive), the GI50 [1] was 23.1 µM (inactive) and the GI50 [49] was 6 µM (inactive). For the same molecule, the GI50 [50] was 30.8 µM (inactive), the GI50 [2] was 6.82 µM (inactive) and the GI50 [3] was 32.1 µM (inactive). The GI50 [4] was 6.76 µM (inactive), the GI50 [5] was 26.1 µM (inactive) and the GI50 [6] was 38.5 µM (inactive). For the same molecule, the GI50 [51] was 2.58 µM (inactive), the GI50 [7] was 2.56 µM (inactive) and the GI50 [8] was 7.82 µM (inactive). For the same molecule, the GI50 [9] was 4.32 µM, the GI50 [10] was 7.78 µM (inactive) and the GI50 [11] was 8.83 µM (inactive). The GI50 [12] was 1.8 µM (inactive), the GI50 [13] was 47.9 µM (inactive) and the GI50 [14] was 14.2 µM (inactive). The GI50 [15] was 9.1 µM (inactive), the GI50 [16] was 11 µM (inactive) and the GI50 [17] was 2.79 µM (inactive). The GI50 [18] was 5.11 µM (inactive), the GI50 [19] was 26.1 µM (inactive) and the GI50 [20] was 16.3 µM (inactive). The GI50 [21] was 6.64 µM (inactive), the GI50 [22] was 5.12 µM (inactive) and the GI50 [23] was 17.2 µM (inactive). For the same molecule, the GI50 [24] was 12 µM (inactive), the GI50 [25] was 31.3 µM (inactive) and the GI50 [26] was 9.91 µM (inactive). For the same molecule, the GI50 [27] was 3.53 µM (inactive), the GI50 [28] was 3.06 µM (inactive) and the GI50 [29] was 5.78 µM (inactive). The GI50 [30] was 4.51 µM (inactive), the GI50 [53] was 4.41 µM (inactive) and the GI50 [31] was > 100 µM (inactive). The GI50 [32] was 4.93 µM (inactive), the GI50 [33] was 4.66 µM (inactive) and the GI50 [34] was 3.94 µM (inactive). For the same molecule, the GI50 [35] was 8.81 µM (inactive), the GI50 [54] was 5.09 µM (inactive) and the GI50 [36] was 18.2 µM (inactive). For the same molecule, the GI50 [55] was 3.09 µM (inactive), the GI50 [37] was 24.4 µM (inactive) and the GI50 [38] was 3.31 µM (inactive). For the same molecule, the GI50 [39] was 4.06 µM (inactive), the GI50 [40] was 9.68 µM (inactive) and the GI50 [56] was 45.7 µM (inactive). For the same molecule, the GI50 [41] was 9.2 µM (inactive), the GI50 [42] was 7.19 µM (inactive) and the GI50 [43] was 4.44 µM (inactive). For the same molecule, the GI50 [44] was 3.82 µM (inactive), the GI50 [58] was 66.7 µM (inactive) and the GI50 [45] was 5.5 µM (inactive). The GI50 [59] was 25.7 µM (inactive), the GI50 [46] was 4.41 µM (inactive) and the GI50 [47] was 6.76 µM (inactive).
